# Measurements from publication PMC6934184, “Selective DNA-PKcs inhibition extends the therapeutic index of localized radiotherapy and chemotherapy” (The Journal of Clinical Investigation, 2019).
# Target: T1, JAK2 (Homo sapiens, UniProt O60674)
# T1 construct: purchased Thermo Fisher Scientific (Life Technologies) SelectScreen
# Experiment: SelectScreen Z'LYTE
# Assay type: biochemical
# Procedure, shortened: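 Percent values come from Thermo SelectScreen profiling of NU5455, combining activity and binding assays. CSF1R was run in Z'LYTE format at Km app ATP, and CAMK1 in Adapta format with ATP listed at 10.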
# T1 sequence (O60674 whole entry): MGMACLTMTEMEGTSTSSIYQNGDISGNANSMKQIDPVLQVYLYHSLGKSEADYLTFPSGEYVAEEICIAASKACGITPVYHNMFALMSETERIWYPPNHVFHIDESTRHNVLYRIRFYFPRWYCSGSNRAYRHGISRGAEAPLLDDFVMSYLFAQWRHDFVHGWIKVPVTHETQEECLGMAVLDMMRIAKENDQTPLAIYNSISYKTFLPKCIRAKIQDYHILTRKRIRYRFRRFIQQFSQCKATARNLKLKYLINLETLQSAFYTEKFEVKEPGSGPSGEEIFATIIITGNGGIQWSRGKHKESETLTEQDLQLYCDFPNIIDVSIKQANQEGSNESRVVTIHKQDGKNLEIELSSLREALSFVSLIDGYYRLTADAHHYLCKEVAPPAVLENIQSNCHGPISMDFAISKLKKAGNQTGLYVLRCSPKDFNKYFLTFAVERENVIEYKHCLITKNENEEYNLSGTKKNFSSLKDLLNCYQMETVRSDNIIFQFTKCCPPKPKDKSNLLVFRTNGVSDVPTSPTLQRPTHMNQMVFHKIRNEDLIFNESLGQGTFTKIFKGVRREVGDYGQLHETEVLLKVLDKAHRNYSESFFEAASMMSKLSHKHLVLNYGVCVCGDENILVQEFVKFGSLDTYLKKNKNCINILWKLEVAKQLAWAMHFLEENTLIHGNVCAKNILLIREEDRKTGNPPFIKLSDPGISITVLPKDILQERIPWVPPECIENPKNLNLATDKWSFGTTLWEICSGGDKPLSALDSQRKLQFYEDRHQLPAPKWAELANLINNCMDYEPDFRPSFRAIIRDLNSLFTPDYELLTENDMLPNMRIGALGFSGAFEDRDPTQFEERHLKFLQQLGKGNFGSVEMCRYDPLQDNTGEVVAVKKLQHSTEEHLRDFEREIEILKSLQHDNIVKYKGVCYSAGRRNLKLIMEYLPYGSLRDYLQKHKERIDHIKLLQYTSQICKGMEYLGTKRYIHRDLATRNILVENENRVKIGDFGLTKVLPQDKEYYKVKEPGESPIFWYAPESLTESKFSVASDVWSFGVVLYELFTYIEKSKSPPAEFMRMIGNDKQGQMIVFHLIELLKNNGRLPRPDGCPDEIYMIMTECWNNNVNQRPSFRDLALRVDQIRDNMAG
structure (smiles),measurement,value
CN(C(=O)CN1CCOCC1)c1ccc2sc3c(-c4cccc5c(=O)cc(N6CC7CCC(C6)O7)oc45)cccc3c2c1 [NU5455],inhibition at 1 µM,2.5%
